Patent US11925629B2, “Heterocyclic inhibitors of ERK1 and ERK2 and their use in the treatment of cancer” (Asana Biosciences, LLC, priority 2015, dated 2024)
Like-named read-outs stand apart in the source and are kept apart here.

Key:
Format in all cases: cell-based, human
[1] = tested on: phosphorylation of RSK1(S380) (the downstream target of ERK1/2); assay: Phospho-RSK1(S380) ELISA assay in HT-29 cells; conditions: Homo sapiens, HT-29, HT29 cells, read-out: Mechanistic Cell Assay RSK1 Phos HT29 IC50
How it was run: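 HT-29 colorectal carcinoma cells (B-RafV600E), plated overnight at 37° C./5% CO2, were treated with compound dilutions for 2 h. Lysates were analysed by phospho-RSK1(Ser380) sandwich ELISA with absorbance at 450 nm. IC50 came from a sigmoidal variable-slope dose-response fit.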

[2] = tested on: HT-29 (colorectal carcinoma, B-RafV600E) cells; assay: Cell proliferation (Alamar Blue) assay, HT-29; conditions: Homo sapiens, HT-29, HT29 cells
How it was run: (§1)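 Fluorescence read-out (ex 540 nm, em 590 nm) after 1-3 h with 1× Alamar Blue, following 72 h compound exposure at 37° C./5% CO2. Compounds tested at typically 0.0005 to 10 uM, 3-fold steps; IC50 by sigmoidal dose-response (variable slope).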

[3] = tested on: HCT116 (colorectal carcinoma, K Ras G13D) cells; assay: Cell proliferation (Alamar Blue) assay, HCT116; conditions: Homo sapiens, HCT-116, HCT116 cells
How it was run: as §1

| Structure (SMILES) | IC50 ([1]; phospho-RSK1(S380)) [nM] | IC50 [2] [nM] | IC50 [3] [nM] | IC50 [1] [nM] |
| --- | --- | --- | --- | --- |
| COc1cc(Nc2ncc(C)c(-n3ccc(C(=O)N[C@H](CO)c4ccc(F)c(Cl)c4)c3)n2)cc(OC)c1OC [Example 126, (S)-N-(1-(3-chloro-4-fluorophenyl)-2-hydroxy-ethyl)-1-(5-methyl-2-((3,4,5-trimethoxy-phenyl)amino)pyrimidin-4-yl)-1H-pyrrole-3-carboxamide] | 100 to 250 | 100 to 250 | ≤ 100 | – |
| Cc1cnc(Nc2ccc3c(c2)OCO3)nc1-n1ccc(C(=O)NC(CO)c2cc(Cl)cc(Cl)c2)c1 (stereo not drawn) [Example 58, 1-(2-(benzo[d][1,3]dioxol-5-ylamino)-5-methyl-pyrimidin-4-yl)-N-(1-(3,5-dichloro-phenyl)-2-hydroxy-ethyl)-1H-pyrrole-3-carboxamide] | 500 to 2500 | 500 to 2500 | > 2500 | – |
| CC[C@@H](CO)Nc1cc(-n2ccc(C(=O)NC(CO)c3cccc(Cl)c3)c2)ccn1 (stereo partly drawn) [Example 109, N-(1-(3-chloro-phenyl)-2-hydroxy-ethyl)-1-(2-(((S)-1-hydroxy-butan-2-yl)amino)pyridin-4-yl)-1H-pyrrole-3-carboxamide] | 250 to 500 | > 2500 | > 2500 | – |
| Cc1cc(Nc2ncc(C)c(-n3ccc(C(=O)NC(CO)c4cccc(Cl)c4)c3)n2)ccc1C1CCNCC1 (stereo not drawn) [Example 182, N-(1-(3-chlorophenyl)-2-hydroxyethyl)-1-(5-methyl-2-((3-methyl-4-(piperidin-4-yl)phenyl)amino)pyrimidin-4-yl)-1H-pyrrole-3-carboxamide] | 500 to 2500 | 500 to 2500 | 250 to 500 | – |
| Cc1cnc(Nc2ccc3c(c2)OC(F)(F)O3)nc1-n1ccc(C(=O)NC(CN)c2cccc(Cl)c2)c1 (stereo not drawn) [Cmpd 136, N-(2-amino-1-(3-chloro-phenyl)ethyl)-1-(2-((2,2-difluoro-benzo[d][1,3]dioxol-5-yl)amino)-5-methyl-pyrimidin-4-yl)-1H-pyrrole-3-carboxamide] | > 2500 | 500 to 2500 | 500 to 2500 | – |

Results, then the compound that gave them:

| IC50 ([1]; phospho-RSK1(S380)) [nM] | IC50 [2] [nM] | IC50 [3] [nM] | IC50 [1] [nM] | Structure (SMILES) |
| --- | --- | --- | --- | --- |
| 250 to 500 | 250 to 500 | 500 to 2500 | – | Cc1cnc(Nc2ccc3c(c2)OCO3)nc1-n1cnc(C(=O)N[C@H](CO)c2cccc(Cl)c2)c1 [Example 48, (S)-1-(2-(benzo[d][1,3]dioxol-5-ylamino)-5-methyl-pyrimidin-4-yl)-N-(1-(3-chloro-phenyl)-2-hydroxy-ethyl)-1H-imidazole-4-carboxamide] |
| 500 to 2500 | 250 to 500 | 250 to 500 | – | Cc1cnc(Nc2ccnn2C)nc1-n1cnc(C(=O)N[C@H](CO)c2cccc(Cl)c2)c1 [Example 277, (S)-N-(1-(3-chlorophenyl)-2-hydroxyethyl)-1-(5-methyl-2-((1-methyl-1H-pyrazol-5-yl)amino)pyrimidin-4-yl)-1H-imidazole-4-carboxamide] |
| 500 to 2500 | 250 to 500 | > 2500 | – | Cc1cnc(Nc2ccc(C3CCNCC3)cc2)nc1-n1ccc(C(=O)NC(CO)c2cccc(Cl)c2)c1 (stereo not drawn) [Example 215, N-(1-(3-chlorophenyl)-2-hydroxyethyl)-1-(5-methyl-2-((4-(piperidin-4-yl)phenyl)amino)pyrimidin-4-yl)-1H-pyrrole-3-carboxamide] |
| – | ≤ 100 | ≤ 100 | ≤ 100 | Cc1cnc(NC2CCOCC2)nc1-n1cnc(C(=O)N[C@H](CNCCO)c2cccc(Cl)c2)c1 [Example 333, (S)-N-(1-(3-chlorophenyl)-2-((2-hydroxyethyl)amino)ethyl)-1-(5-methyl-2-((tetrahydro-2H-pyran-4-yl)amino)pyrimidin-4-yl)-1H-imidazole-4-carboxamide] |
| – | ≤ 100 | ≤ 100 | 100 to 250 | CC(=O)OCc1c(Cl)cccc1CNC(=O)c1cn(-c2nc(N[C@H]3CCOC3)ncc2C)cn1 [Example 342, (S)-2-chloro-6-((1-(5-methyl-2-((tetrahydrofuran-3-yl)amino)pyrimidin-4-yl)-1H-imidazole-4-carboxamido)-methyl)benzyl acetate] |
